Results published in the SangsterLogP compilation.

Legend:
[1] = method code SF-HPLC, from DOI: 10.1016/0005-2728(88)90027-8, PMID: 3196713; settings: pH 2.2

Row | logP | logD [1] | Compound
1 | 3.98 | – | O=C(Nc1ccccc1)c1cc(Cl)ccc1O
2 | 5.02 | – | O=C(Nc1ccc(Cl)cc1)c1cc(Br)ccc1O
3 | 5.08 | – | O=C(Nc1ccc(Cl)cc1[N+](=O)[O-])c1cc(Cl)cc(Cl)c1O
4 | – | 4.35 | O=C(Nc1ccccc1Cl)c1ccccc1O
5 | 5.18 | – | Cc1cc(Cl)ccc1NC(=O)c1ccccc1O
6 | 5.49 | – | O=C(Nc1ccc(Cl)cc1Cl)c1ccccc1O
7 | 4.51 | – | Cc1cc([N+](=O)[O-])ccc1NC(=O)c1cc(Cl)cc(Cl)c1O
8 | 4.55 | – | O=C(Nc1ccc(F)cc1F)c1cc(Cl)cc(Cl)c1O
9 | 4.89 | – | Cc1cc(Cl)ccc1NC(=O)c1cc(F)ccc1O
10 | 5.15 | – | O=C(Nc1ccc(Cl)cc1)c1cc(Cl)cc(Cl)c1O
11 | 5.05 | – | O=C(Nc1ccc(Cl)cc1[N+](=O)[O-])c1cc(Br)cc(Br)c1O
12 | – | 4.76 | O=C(Nc1ccc(F)cc1)c1cc(Cl)cc(Cl)c1O
13 | 4.29 | – | O=C(Nc1ccc(Cl)cc1)c1ccccc1O
14 | 5.15 | – | Cc1cc(Br)ccc1NC(=O)c1cc(F)ccc1O
15 | 4.99 | – | O=C(Nc1ccc(F)cc1F)c1cc(Br)cc(Br)c1O
16 | 4.51 | – | O=C(Nc1ccc(Br)cc1)c1ccccc1O
17 | – | 4.21 | Cc1ccccc1NC(=O)c1cc(Cl)ccc1O
18 | 2.87 | – | O=C(Nc1ccccc1[N+](=O)[O-])c1ccccc1O
19 | 4.02 | – | O=C(Nc1ccc(Cl)cc1[N+](=O)[O-])c1ccccc1O
20 | 4.01 | – | O=C(Nc1ccccc1)c1cc(Cl)cc(Cl)c1O
